Reference: patent US20100298141A1, “SUBSTITUTED PYRIDINE N-OXIDE HERBICIDES” (E. I. DU PONT DE NEMOURS AND COMPANY, priority 2007, published 2010)

Assays:
Test in all cases: Test F preemergence test
Settings in all cases: scale 0 to 100
johnsongrass = assay type: in vivo, Sorghum halepense
Text: (§1) Seeds of plant species selected from bermudagrass (Cynodon dactylon), Surinam grass (Brachiaria decumbens), large crabgrass (Digitaria sanguinalis), green foxtail (Setaria viridis), goosegrass (Eleusine indica), johnsongrass (Sorghum halepense), kochia (Kochia scoparia), pitted morningglory (Ipomoea lacunosa), purple nutsedge (Cyperus rotundus), common ragweed (Ambrosia elation), mustard (Brassica nigra), guineagrass (Panicum maximum), […] (Paspalum dilatatum), barnyardgrass (Echinochloa crus-galli), southern sandbur (Cenchrus echinatus), common sowthistle (Sonchus oleraceous), prickly […] spinosa), Italian ryegrass (Lolium multiflorum), common purslane (Portulaca oleracea), broadleaf signalgrass (Brachiaria platyphylla), common groundsel (Senecio vulgaris), common chickweed (Stellaria media), Virginia dayflower (Commelina virginica), annual bluegrass (Poa annua), naked crabgrass (Digitaria nuda), […] cochinchinensis), quackgrass (Elytrigia repens), Canada horseweed (Conyza canadensis), field bindweed (Convolvulus arvensis), […] (Bidens bipinnata), common mallow (Malva sylvestris), Russian thistle (Salsola kali), and sugarcane (Saccharum officinarum) were planted and treated preemergence with test chemicals formulated in a non-phytotoxic solvent mixture which included a surfactant. At a different time, sugarcane was treated with postemergence applications of some of the test chemicals formulated in the same manner. Plants were approximately 3- to 4-leaf stage for the postemergence treatments. Treated plants and controls were maintained in a greenhouse for 14 to 21 days, after which time all species were compared to controls and visually evaluated. […] A dash (-) response means no test result.

naked crabgrass = assay type: in vivo, Digitaria nuda
Text: as §1

kochia = assay type: in vivo, Kochia scoparia
Text: as §1

bermudagrass = assay type: in vivo, Cynodon dactylon
Text: as §1

pitted morningglory = assay type: in vivo, Ipomoea lacunosa
Text: as §1

Italian ryegrass = assay type: in vivo, Lolium multiflorum
Text: as §1

southern sandbur = assay type: in vivo, Cenchrus echinatus
Text: as §1

purple nutsedge = assay type: in vivo, Cyperus rotundus
Text: as §1

common purslane = assay type: in vivo, Portulaca oleracea
Text: as §1

Surinam grass = assay type: in vivo, Brachiaria decumbens
Text: as §1

quackgrass = assay type: in vivo, Elytrigia repens
Text: as §1

guineagrass = assay type: in vivo, Panicum maximum
Text: as §1

goosegrass = assay type: in vivo, Eleusine indica
Text: as §1

large crabgrass = assay type: in vivo, Digitaria sanguinalis
Text: as §1

prickly sida = assay type: in vivo, Sida spinosa
Text: as §1

common groundsel = assay type: in vivo, Senecio vulgaris
Text: as §1

Cn1nc(C(F)(F)F)c(C[S+]([O-])c2ccc(Cl)c[n+]2[O-])c1OC(F)F (stereo not shown) [Compound 6]
Plant response rating, Johnsongrass (johnsongrass; 8 g ai/ha, preemergence): 75 | Johnsongrass plant response rating (johnsongrass; 62 g ai/ha, Preemergence): 95 | Plant response rating, Johnsongrass (johnsongrass; Preemergence, 16 g ai/ha): 75 | Plant response rating, Johnsongrass (johnsongrass; Preemergence, 31 g ai/ha): 95 | Plant response rating, Crabgrass, Naked (naked crabgrass; 8 g ai/ha, preemergence): 0 | Crabgrass, Naked plant response rating (naked crabgrass; 62 g ai/ha, Preemergence): 100 | Plant response rating, Crabgrass, Naked (naked crabgrass; Preemergence, 16 g ai/ha): 65 | Plant response rating, Crabgrass, Naked (naked crabgrass; Preemergence, 31 g ai/ha): 80 | Plant response rating, Kochia (kochia; 8 g ai/ha, preemergence): 0 | Kochia plant response rating (kochia; 62 g ai/ha, Preemergence): 60 | Plant response rating, Kochia (kochia; Preemergence, 16 g ai/ha): 0 | Plant response rating, Kochia (kochia; Preemergence, 31 g ai/ha): 0 | Plant response rating, Bermudagrass (bermudagrass; 8 g ai/ha, preemergence): 0 | Bermudagrass plant response rating (bermudagrass; 62 g ai/ha, Preemergence): 80 | Plant response rating, Bermudagrass (bermudagrass; Preemergence, 16 g ai/ha): 15 | Plant response rating, Bermudagrass (bermudagrass; Preemergence, 31 g ai/ha): 65 | Plant response rating, Morningglory (pitted morningglory; 8 g ai/ha, preemergence): 0 | Morningglory plant response rating (pitted morningglory; 62 g ai/ha, Preemergence): 75 | Plant response rating, Morningglory (pitted morningglory; Preemergence, 16 g ai/ha): 0 | Plant response rating, Morningglory (pitted morningglory; Preemergence, 31 g ai/ha): 75 | Plant response rating, Ryegrass, Italian (Italian ryegrass; 8 g ai/ha, preemergence): 0 | Ryegrass, Italian plant response rating (Italian ryegrass; 62 g ai/ha, Preemergence): 85 | Plant response rating, Ryegrass, Italian (Italian ryegrass; Preemergence, 16 g ai/ha): 40 | Plant response rating, Ryegrass, Italian (Italian ryegrass; Preemergence, 31 g ai/ha): 75 | Plant response rating, Sandbur (southern sandbur; 8 g ai/ha, preemergence): 0 | Plant response rating, Sandbur (southern sandbur; 16 g ai/ha, preemergence): 75 | Sandbur plant response rating (southern sandbur; 62 g ai/ha, Preemergence): 100 | Plant response rating, Sandbur (southern sandbur; Preemergence, 31 g ai/ha): 100 | Plant response rating, Purple Nutsedge (purple nutsedge; 8 g ai/ha, preemergence): 0 | Purple Nutsedge plant response rating (purple nutsedge; 62 g ai/ha, Preemergence): 75 | Plant response rating, Purple Nutsedge (purple nutsedge; Preemergence, 16 g ai/ha): 20 | Plant response rating, Purple Nutsedge (purple nutsedge; Preemergence, 31 g ai/ha): 20 | Plant response rating, Purslane (common purslane; 8 g ai/ha, preemergence): 10 | Purslane plant response rating (common purslane; 62 g ai/ha, Preemergence): 70 | Plant response rating, Purslane (common purslane; Preemergence, 16 g ai/ha): 20 | Plant response rating, Purslane (common purslane; Preemergence, 31 g ai/ha): 50 | Plant response rating, Surinam Grass (Surinam grass; 8 g ai/ha, preemergence): 0 | Plant response rating, Surinam Grass (Surinam grass; 16 g ai/ha, preemergence): 60 | Surinam Grass plant response rating (Surinam grass; 62 g ai/ha, Preemergence): 90 | Plant response rating, Surinam Grass (Surinam grass; Preemergence, 31 g ai/ha): 70 | Plant response rating, Quackgrass (quackgrass; 8 g ai/ha, preemergence): 0 | Quackgrass plant response rating (quackgrass; 62 g ai/ha, Preemergence): 75 | Plant response rating, Quackgrass (quackgrass; Preemergence, 16 g ai/ha): 60 | Plant response rating, Quackgrass (quackgrass; Preemergence, 31 g ai/ha): 65 | Plant response rating, Guineagrass (guineagrass; 8 g ai/ha, preemergence): 100 | Guineagrass plant response rating (guineagrass; 62 g ai/ha, Preemergence): 100 | Plant response rating, Guineagrass (guineagrass; Preemergence, 16 g ai/ha): 100 | Plant response rating, Guineagrass (guineagrass; Preemergence, 31 g ai/ha): 100 | Plant response rating, Goosegrass (goosegrass; 8 g ai/ha, preemergence): 20 | Goosegrass plant response rating (goosegrass; 62 g ai/ha, Preemergence): 95 | Plant response rating, Goosegrass (goosegrass; Preemergence, 16 g ai/ha): 75 | Plant response rating, Goosegrass (goosegrass; Preemergence, 31 g ai/ha): 90 | Plant response rating, Crabgrass, Large (large crabgrass; 8 g ai/ha, preemergence): 0 | Crabgrass, Large plant response rating (large crabgrass; 62 g ai/ha, Preemergence): 95 | Plant response rating, Crabgrass, Large (large crabgrass; Preemergence, 16 g ai/ha): 15 | Plant response rating, Crabgrass, Large (large crabgrass; Preemergence, 31 g ai/ha): 70 | Plant response rating, Prickly Sida (prickly sida; 8 g ai/ha, preemergence): 0 | Prickly Sida plant response rating (prickly sida; 62 g ai/ha, Preemergence): 100 | Plant response rating, Prickly Sida (prickly sida; Preemergence, 16 g ai/ha): 0 | Plant response rating, Prickly Sida (prickly sida; Preemergence, 31 g ai/ha): 80 | Plant response rating, Groundsel (common groundsel; 8 g ai/ha, preemergence): 0 | Groundsel plant response rating (common groundsel; 62 g ai/ha, Preemergence): 75 | Plant response rating, Groundsel (common groundsel; Preemergence, 16 g ai/ha): 50 | Plant response rating, Groundsel (common groundsel; Preemergence, 31 g ai/ha): 75
